Measured values as given in PMC6792352, “Limited Chemical Structural Diversity Found to Modulate Thyroid Hormone Receptor in the Tox21 Chemical Library” (Environmental Health Perspectives, 2019).
Counter-ions that a name gives are not always drawn. No end group written: not given here.

experiment: in vitro; conditions: rat, gh3-tre-luc cells, AC50 (uM) modified / 1000

Compound | CC50 at 24 h [µM]
O=C[C@H](O)[C@@H](O)[C@H](O)[C@H](O)CO (racemic) [DL-Glucose] | > 50
RKDVY [Thymopentin] | > 50
CC1(C)S[C@@H]2[C@H](NC(=O)[C@H](N)c3ccccc3)C(=O)N2[C@H]1C(=O)OCOC(=O)[C@@H]1N2C(=O)C[C@H]2S(=O)(=O)C1(C)C [Sultamicillin tosylate] | > 50
CC(=O)Nc1ccccc1 [Acetanilide] | > 90
CN1CC[C@@]23CCCC[C@@H]2[C@@H]1Cc1ccc(O)cc13 [Dextrorphan tartrate] | > 50
c1ccncc1 [Pyridine hydrochloride] | > 90
CCCCCCCCC(=O)OCC [Ethyl nonanoate] | > 90
C/N=C(\NC)NCc1ccccc1 [Bethanidine sulfate (2:1)] | > 50
CN(C)CCCN [3-(Dimethylamino)propylamine] | > 90
O=C(O)/C=C/c1ccccc1 [E-Cinnamic acid] | > 90
Nc1ccc2cc3ccccc3cc2c1 [2-Aminoanthracene] | > 90
CCCCc1nc2cccnc2n1Cc1ccc(-c2ccccc2-c2nnn[nH]2)cc1 [FR130739] | 55.3
COC(=O)c1ccccc1 [Methyl benzoate] | > 90
C1=Cc2cccc3cccc1c23 [Acenaphthylene] | > 90
CC(C)=CC1C(C(=O)OCc2cccc(Oc3ccccc3)c2)C1(C)C (stereo not shown) [Phenothrin] | > 90
N[C@@H](Cc1ccccc1)C(=O)O [Phenylalanine] | > 50
CCCc1ccccc1O [2-Propylphenol] | > 90
Cc1ccc(Nc2c(F)cccc2Cl)c(CC(=O)O)c1 [Lumiracoxib] | > 50
Cc1ccccc1C(=O)Nc1ccc(C(=O)N2CCCC(O)c3cc(Cl)ccc32)c(C)c1 (stereo not shown) [Tolvaptan] | > 50
CCCCCN(CCCCC)C(=O)C(CCC(=O)O)NC(=O)c1ccc(Cl)c(Cl)c1 (stereo not shown) [Lorglumide sodium] | > 50
CS(=O)(=O)c1ccc(C(=O)C2C(=O)CCCC2=O)c(Cl)c1COCC(F)(F)F [Tembotrione] | > 90
CCCCCCOC(=O)C(C)C [Hexyl isobutyrate] | > 90
Cc1ccccc1N1CCN(CCc2nnc3n2CCCC3)CC1 [Dapiprazole hydrochloride] | > 50
Cc1cc2c(s1)Nc1ccccc1N=C2N1CCN(C)CC1 [Olanzapine] | 15.7

Compound | CC50 at 24 h [µM]
CC(CC(C)C)=NO [N-Hydroxy-4-methylpentan-2-imine] | > 90
CC(O)Cn1cnc2c1c(=O)n(C)c(=O)n2C (stereo not shown) [Proxyphylline] | > 20
COS(=O)(=O)C(F)(F)F [Methyl trifluoromethanesulfonate] | > 100
CN[C@@H]1[C@H](O[C@H]2[C@H](O[C@H]3[C@H](O)[C@@H](O)[C@H](NC(=N)N)[C@@H](O)[C@@H]3NC(=N)N)O[C@@H](C)[C@]2(O)CO)O[C@@H](CO)[C@H](O)[C@H]1O [Dihydrostreptomycin sulfate] | > 50
COc1ccccc1N1CCN(CCCCNC(=O)c2ccc(-c3ccc(C(C)=O)cc3)cc2)CC1 [GR 103691] | > 50
Cc1cccc2ccccc12 [1-Methylnaphthalene] | > 90
CC1(C)OC(=O)NC1=O [Dimethadione] | > 90
COc1ncnc(NS(=O)(=O)c2ccc(N)cc2)c1OC [Sulfadoxine] | > 50
Cc1ccc(O)c(O)c1 [4-Methylcatechol] | 38.5
COc1ccc(C(=O)NCc2ccc(OCCN(C)C)cc2)cc1OC [Itopride hydrochloride] | > 50
O=C(O)c1cc(I)cc(I)c1I [2,3,5-Triiodobenzoic acid] | > 100
CCOC(=O)c1cnc2cc(OCC(C)C)c(OCC(C)C)cc2c1O [Buquinolate] | > 50
CCOC(=O)Oc1c(OC)cc(C(=O)O[C@@H]2C[C@@H]3CN4CCc5c([nH]c6cc(OC)ccc56)[C@H]4C[C@@H]3[C@H](C(=O)OC)[C@H]2OC)cc1OC [Syrosingopine] | > 20
Cc1ncc(C[n+]2csc(CCO[P@](=O)(O)OP(=O)(O)O)c2C)c(N)n1 [Cocarboxylase chloride] | > 50
CC(CN1CC(=O)NC(=O)C1)N1CC(=O)NC(=O)C1 (stereo not shown) [ICRF-159] | > 90
CCN(CC)C(=O)N[C@H]1C[C@@H]2c3cccc4[nH]cc(c34)C[C@H]2N(C)C1 [Terguride] | > 50
CC(C)(C)NC[C@H](O)c1ccc(O)cc1Cl [Meluadrine] | > 50
O=[N+]([O-])c1cc(C2CCCCC2)c(O)c([N+](=O)[O-])c1 [Dinex] | 8.98
CC(C)=CCC1=C(O)C(=O)c2ccccc2C1=O [Lapachol] | 10.7
BrCc1cccc(Oc2ccccc2)c1 [1-(Bromomethyl)-3-phenoxybenzene] | > 90
O=CN1CCOCC1 [4-Morpholinecarboxaldehyde] | > 90
C=CC1=C(C)c2cc3[nH]c(cc4nc(cc5[nH]c(cc1n2)c(C)c5CCC(=O)O)C(CCC(=O)O)=C4C)c(C)c3C=C [Protoporphyrin disodium] | > 50
CCOC(=O)c1ccc(OC(=O)CCCCCNC(=N)N)cc1 [Gabexate mesilate] | > 20
COC(=O)c1ccc(I)cc1S(=O)(=O)NC(=O)Nc1nc(C)nc(OC)n1 [Iodosulfuron-methyl-sodium] | > 90

Compound | CC50 at 24 h [µM]
CC(=O)c1cccc([N+](=O)[O-])c1 [3-Nitroacetophenone] | > 90
Cc1c[nH]c2ccccc12 [3-Methylindole] | > 50
Nc1ccccn1 [2-Aminopyridine] | > 90
NCCCNCCSP(=O)(O)O [Amifostine] | > 50
Cc1ccc(-c2ncc(Cl)cc2-c2ccc(S(C)(=O)=O)cc2)cn1 [Etoricoxib] | > 50
CC(C)(C)C(=O)OCOP(=O)(COCCn1cnc2c(N)ncnc21)OCOC(=O)C(C)(C)C [Adefovir dipivoxil] | > 50
C1=C\CC/C=C\CC/1 [1,5-Cyclooctadiene] | > 100
OCCCCCCCCCCCCBr [12-Bromo-1-dodecanol] | > 90
CN/C(=N/CCSCc1nc[nH]c1C)NC#N [Cimetidine] | > 90
C[N+](C)(C)CC1CO1 (stereo not shown) [Glycidyl trimethylammonium chloride] | > 90
Cc1ccccc1OCC(O)CO (stereo not shown) [Mephenesin] | > 50
O=C(O)c1ccccc1O [Sodium salicylate] | > 90
Cc1cccc(C)c1Nc1ncccc1C(=O)O [Metanixin] | > 50
CCN(CC)C(=O)[C@]1(c2ccccc2)C[C@@H]1CN (racemic) [Milnacipran hydrochloride] | > 50
COc1ccc(C(O)(c2cncnc2)C2CC2)cc1 (stereo not shown) [Ancymidol] | > 90
O=C1NCN(c2ccccc2)C12CCN(CCCOc1ccc(F)cc1)CC2 [AMI-193] | 14.1
Nc1ccn([C@@H]2CO[C@H](CO)O2)c(=O)n1 [Troxacitabine] | > 50
C=C(C)CCCC(C)CCO (stereo not shown) [Rhodinol] | > 90
CC(C)Nc1cccnc1N1CCN(C(=O)c2cc3cc(NS(C)(=O)=O)ccc3[nH]2)CC1 [Delavirdine] | > 50
NP(N)(=O)NC(=O)c1ccc(F)cc1 [Flurofamide] | > 50
CNC(=O)C(c1ccccc1)c1ccccc1 [N-methyl-alpha-phenylbenzeneacetamide] | > 90
O=S(=O)(O)CCN1CCN(CCO)CC1 [Sodium 2-[4-(2-hydroxyethyl)piperazin-1-yl]ethanesulfonate] | > 90
CCCCCCCCCOC(=O)c1ccccc1C(=O)OCCCCCCCCC [Dinonyl phthalate] | > 90

same assay, conditions: rat, gh3-tre-luc cells, AC50 (uM) modified / 1000, Tox21_110001=Tox21_111833; viability, 1 nM T3 present, 24 h

Compound | CC50 at 24 h [µM]
c1csc(C2(N3CCCCC3)CCCCC2)c1 [Tenocyclidine] | > 50

same assay, conditions: rat, gh3-tre-luc cells, AC50 (uM) modified / 1000, Tox21_110001=Tox21_112623; viability, 1 nM T3 present, 24 h

Compound | CC50 at 24 h [µM]
CC(C)=CC1C(C(=O)OCN2C(=O)C3=C(CCCC3)C2=O)C1(C)C (stereo not shown) [Tetramethrin] | > 50

same assay, conditions: rat, gh3-tre-luc cells, AC50 (uM) modified / 1000, Tox21_110001=Tox21_112860; viability, 1 nM T3 present, 24 h

Compound | CC50 at 24 h [µM]
CCC(=O)O[C@](Cc1ccccc1)(c1ccccc1)[C@H](C)CN(C)C [(2S,3R)-(+)-4-(Dimethylamino)-3-methyl-1,2-diphenyl-2-butanol propionate hydrochloride] | 30.1

same assay, conditions: rat, gh3-tre-luc cells, AC50 (uM) modified / 1000, Tox21_110001=Tox21_112877; viability, 1 nM T3 present, 24 h

Compound | CC50 at 24 h [µM]
CC(C)=CCN1CC[C@@]2(C)c3cc(O)ccc3C[C@@H]1[C@@H]2C [(-)-Pentazocine succinate] | 34.4

same assay, conditions: rat, gh3-tre-luc cells, AC50 (uM) modified / 1000, Tox21_110001=Tox21_112882; viability, 1 nM T3 present, 24 h

Compound | CC50 at 24 h [µM]
c1ccc(CN2CCNCC2)cc1 [1-Benzylpiperazine difumarate] | > 200

same assay, conditions: rat, gh3-tre-luc cells, AC50 (uM) modified / 1000, Tox21_110001=Tox21_113424; viability, 1 nM T3 present, 24 h

Compound | CC50 at 24 h [µM]
C[C@]12CCC(=O)C[C@@H]1CC[C@@H]1[C@@H]2CC[C@@]2(C)[C@H]1CC[C@]2(C)O [Mestanolone] | > 50

same assay, conditions: rat, gh3-tre-luc cells, AC50 (uM) modified / 1000, Tox21_110001=Tox21_201089; viability, 1 nM T3 present, 24 h

Compound | CC50 at 24 h [µM]
ClCc1ccccc1Cl [2-Chlorobenzyl chloride] | > 90

same assay, conditions: rat, gh3-tre-luc cells, AC50 (uM) modified / 1000, Tox21_110001=Tox21_301017; viability, 1 nM T3 present, 24 h

Compound | CC50 at 24 h [µM]
CC(C)=CC1C(C(=O)OCN2C(=O)C3=C(CCCC3)C2=O)C1(C)C (stereo not shown) [Tetramethrin] | > 90

same assay, conditions: rat, gh3-tre-luc cells, AC50 (uM) modified / 1000, Tox21_110001=Tox21_301328; viability, 1 nM T3 present, 24 h

Compound | CC50 at 24 h [µM]
COP(N)(=S)Oc1ccccc1C(=O)OC(C)C (stereo not shown) [Isocarbophos] | > 90

same assay, conditions: rat, gh3-tre-luc cells, AC50 (uM) modified / 1000, Tox21_110001=Tox21_301642; viability, 1 nM T3 present, 24 h

Compound | CC50 at 24 h [µM]
CC(C=O)Cc1ccc2c(c1)OCO2 (stereo not shown) | > 90

same assay, conditions: rat, gh3-tre-luc cells, AC50 (uM) modified / 1000, Tox21_110001=Tox21_302045; viability, 1 nM T3 present, 24 h

Compound | CC50 at 24 h [µM]
NCCOS(=O)(=O)O [2-Aminoethyl hydrogen sulfate] | > 90
